6 molecules from ChEMBL document CHEMBL3085716, “Hytramycins V and I, anti-Mycobacterium tuberculosis hexapeptides from a Streptomyces hygroscopicus strain” (J Nat Prod, 2013) can be followed below.

What all share (format): functional
The subject of experiment [1] is Mycobacterium tuberculosis. In words: Antimycobacterial activity against kanamycin-resistant Mycobacterium tuberculosis ATCC 35827 under normoxic condition after 7 days by MABA assay. The following applies: ATCC 35827, 168 h. For orientation: Alamar Blue is a resazurin reagent that responds to reducing activity.
The test system of experiment [2] is Mycobacterium tuberculosis. In words: Antimycobacterial activity against streptomycin-resistant Mycobacterium tuberculosis ATCC 35820 under normoxic condition after 7 days by MABA assay. The following applies: ATCC 35820, 168 h.
The subject of experiment [3] is Mycobacterium tuberculosis. In words: Ratio of MIC for Mycobacterium tuberculosis harboring luxABCDE under hypoxic condition in presence of 10% fetal bovine serum to MIC for Mycobacterium tuberculosis harboring luxABCDE under hypoxic condition in absence of 10% fetal bovine serum by MABA assay.
The test system of experiment [4] is Mycobacterium tuberculosis. In words: Antimycobacterial activity against Mycobacterium tuberculosis harboring luxABCDE under hypoxic condition after 10 days by MABA assay in presence of 10% fetal bovine serum. The following applies: 240 h.
For experiment [5], the system named is Mycobacterium tuberculosis. In words: Antimycobacterial activity against Mycobacterium tuberculosis harboring luxABCDE under hypoxic condition after 10 days by MABA assay in presence of 4% bovine serum albumin. To be noted: 240 h.
Experiment [6] relates to Mycobacterium tuberculosis. In words: Antimycobacterial activity against rifampin-resistant Mycobacterium tuberculosis ATCC 35838 under normoxic condition after 7 days by MABA assay. To be noted: ATCC 35838, 168 h.
Experiment [7] deals with Mycobacterium tuberculosis. Briefly: Antimycobacterial activity against Mycobacterium tuberculosis harboring luxABCDE under hypoxic condition after 10 days by MABA assay. The following applies: for MIC90: Mycobacterium tuberculosis, 240 h.
The test system of experiment [8] is Mycobacterium tuberculosis. Briefly: Ratio of MIC for Mycobacterium tuberculosis harboring luxABCDE under hypoxic condition in presence of 4% bovine serum albumin to MIC for Mycobacterium tuberculosis harboring luxABCDE under hypoxic condition in absence of 4% bovine serum albumin by MABA assay.
Experiment [9] has as its system Mycobacterium tuberculosis. Briefly: Antimycobacterial activity against isoniazid-resistant Mycobacterium tuberculosis ATCC 35822 under normoxic condition after 7 days by MABA assay. The following applies: ATCC 35822, 168 h.
Experiment [10] relates to Mycobacterium tuberculosis. In words: Antimycobacterial activity against moxifloxacin-resistant Mycobacterium tuberculosis under normoxic condition after 7 days by MABA assay. To be noted: 168 h.
The subject of experiment [11] is Mycobacterium tuberculosis. Briefly: Antimycobacterial activity against cycloserine-resistant Mycobacterium tuberculosis ATCC 35826 under normoxic condition after 7 days by MABA assay. To be noted: ATCC 35826, 168 h.
Experiment [12] deals with Mycobacterium tuberculosis. Briefly: Antimycobacterial activity against capreomycin-resistant Mycobacterium tuberculosis under normoxic condition after 7 days by MABA assay. The following applies: 168 h.

The structures appear in SMILES notation. Converted amounts (≈) assume the structure as drawn.

One may read the MIC90 as the lowest concentration that inhibits either 90% of growth or 90% of the strains tested, depending on the study. `CC(C)C[C@@H]1NC(=O)[C@H]2CCCNN2C(=O)[C@H](C)N(C)C(=O)[C@H]2CCCNN2C(=O)[C@@H]2CCCNN2C(=O)[C@@H](C(C)C)NC1=O`: the MIC90 in experiment [1] was found to be 12.4 µg/mL (≈ 19.6 µM); in experiment [2] it was 11.6 µg/mL (≈ 18.3 µM); in [4] it was 20.9 µg/mL; in [5] it was 19.1 µg/mL; in experiment [6] it was 9.6 µg/mL (≈ 15.1 µM); in [7] it was 2.4 µg/mL (≈ 3.79 µM). The MIC90 in experiment [9] came to 12.1 µg/mL (≈ 19.1 µM); in [10], 9 µg/mL (≈ 14.2 µM); in [11] it was 20.6 µg/mL (≈ 32.5 µM); in experiment [12], 12.1 µg/mL (≈ 19.1 µM). Also, the Ratio in experiment [3] and in [8] was 10 each time. The same molecule came in with an MBC90 in experiment [7] of 19.5 µg/mL (≈ 30.8 µM).
For `CC[C@H](C)[C@H]1NC(=O)[C@H](CC(C)C)NC(=O)[C@H]2CCCNN2C(=O)[C@H](C)N(C)C(=O)[C@H]2CCCNN2C(=O)[C@@H]2CCCNN2C1=O`, the MIC90 in experiment [1] came out at 4.9 µg/mL (≈ 7.56 µM); in [2] it was 4.7 µg/mL (≈ 7.26 µM); in experiment [4], 9.9 µg/mL; in [5], 10.8 µg/mL; in [6], 4.7 µg/mL (≈ 7.26 µM); in experiment [7], 1.5 µg/mL (≈ 2.32 µM). Moreover, the MIC90 in [9] is 4.7 µg/mL (≈ 7.26 µM); in [10], 4 µg/mL (≈ 6.17 µM); in [11], 7.4 µg/mL (≈ 11.4 µM); in experiment [12], 4.8 µg/mL (≈ 7.41 µM). In addition, the Ratio in experiment [3] and in [8] was 10 in each case. For the same molecule, the MBC90 in experiment [7] was determined as 10.5 µg/mL (≈ 16.2 µM).
As to `NNC(=O)c1ccncc1` [ISONIAZID], the MIC90 in experiment [1] is 0.1 µg/mL (≈ 0.729 µM); in experiment [2], 0.03 µg/mL (≈ 0.219 µM); in experiment [4] it was over 140 µg/mL; in experiment [5], over 140 µg/mL; in experiment [6], 0.1 µg/mL (≈ 0.729 µM); in [7], over 140 µg/mL. The MIC90 in experiment [9] is over 1.1 µg/mL; in [10], 0.1 µg/mL (≈ 0.729 µM); in experiment [11], 0.03 µg/mL (≈ 0.219 µM); in experiment [12], 0.1 µg/mL (≈ 0.729 µM).
Regarding `Cc1ncc([N+](=O)[O-])n1CCO` [METRONIDAZOLE], the MIC90 in experiment [1] was over 87.6 µg/mL; in [2], over 87.6 µg/mL; in experiment [4], 5.3 µg/mL; in experiment [5], 13.5 µg/mL; in [6], over 87.6 µg/mL; in experiment [7], over 87.6 µg/mL. Besides, the MIC90 in experiment [9], in experiment [10], in experiment [11] and in [12] was over 87.6 µg/mL each time.
Turning to `CO[C@H]1/C=C/O[C@@]2(C)Oc3c(C)c(O)c4c(O)c(c(/C=N/N5CCN(C)CC5)c(O)c4c3C2=O)NC(=O)/C(C)=C\C=C\[C@H](C)[C@H](O)[C@@H](C)[C@@H](O)[C@@H](C)[C@H](OC(C)=O)[C@@H]1C` [RIFAMPIN], the MIC90 in [1] is under 0.01 µg/mL; in experiment [2] it was under 0.01 µg/mL; in experiment [4] it was 0.1 µg/mL; in experiment [5] it was 0.2 µg/mL; in [6], over 3.3 µg/mL; in experiment [7] it was under 0.1 µg/mL. For the same molecule, the MIC90 in [9] was 0.01 µg/mL (≈ 0.0122 µM); in experiment [10], 0.1 µg/mL (≈ 0.122 µM); in experiment [11], under 0.01 µg/mL; in [12] it was 0.04 µg/mL (≈ 0.0486 µM). In experiment [7], the MBC90 amounted to 0.5 µg/mL (≈ 0.608 µM).
Regarding `CN[C@@H]1[C@H](O[C@H]2[C@H](O[C@H]3[C@H](O)[C@@H](O)[C@H](N=C(N)N)[C@@H](O)[C@@H]3N=C(N)N)O[C@@H](C)[C@]2(O)C=O)O[C@@H](CO)[C@H](O)[C@H]1O` [STREPTOMYCIN], the MIC90 is 1.1 µg/mL (≈ 1.89 µM) in experiment [1]; over 9.3 µg/mL in experiment [2]; 0.6 µg/mL in experiment [4]; 0.4 µg/mL in experiment [5]; 0.1 µg/mL (≈ 0.172 µM) in experiment [6]; 0.6 µg/mL (≈ 1.03 µM) in [7]. The MIC90 came out at 0.1 µg/mL (≈ 0.172 µM) in [9], 0.5 µg/mL (≈ 0.86 µM) in experiment [10], 0.4 µg/mL (≈ 0.688 µM) in [11] and 1.1 µg/mL (≈ 1.89 µM) in experiment [12].
